Test results as given in patent US12134610B2, “Somatostatin subtype-2 receptor (SST2R) targeted therapeutics and uses thereof” (priority 2022, dated 2024).
Read-outs that look alike come from different tables or passages of the source. Non-standard residues stand in square brackets, D forms with d. Residues, ends and D or L forms follow the SMILES beside them. *: point of attachment. X1 = Cc1cc(F)cc(-c2cnc(NCCNC(=O)CCOCCC(=O)*)c(-c3nc4ccc(Cl)cc4[nH]3)c2N2CCC(N)CC2)c1; Dolaproine = CO[C@@H]([C@@H]1CCCN1)[C@@H](C)C(=O)O; Dil = CC[C@H](C)[C@H](NC)[C@@H](CC(=O)O)OC; X2 = C[C@@H](N*)[C@@H](O)c1ccccc1; NMeV = CN[C@H](C(=O)O)C(C)C

Columns and labels:
Assay type in all cases: cell-based
[1] = target: T1, human somatostatin receptor subtype 2 (Homo sapiens, UniProt P30874); test: Functional cAMP assay for SSTR2 agonists (HTRF) in CHO-K1 cells; settings: CHO-K1 cells stably expressing human SST2, 20 min
T1 construct: expressed in transfected cells
Source text: General overview: All five SSTR subtypes are Gi coupled G-protein coupled receptors (GPCRs) that lead to decreases in intracellular cyclic AMP (cAMP) when activated by an agonist. Therefore, measurement of intracellular cAMP levels can be used to assess whether compounds of the invention are agonists of SSTR subtypes (John Kelly, Troy Stevens, W. Joseph Thompson, and Roland Seifert, Current Protocols in Pharmacology, 2005, 2.2.1-2.2). One example of an intracellular cAMP assay is described below.
Functional Assay for SSTR2 Agonists
Four days prior to the assay, 2,000 Chinese hamster ovary cells (CHO-K1, ATCC #CCL-61) stably expressing the human somatostatin receptor subtype 2 are plated in each well of a 96-well tissue culture-treated plate in Ham's F12 growth media (ThermoFisher #10-080-CM) supplemented with 10% donor bovine serum (Gemini Bio-Products #100-506), 100 U/mL penicillin; 100 ug/mL streptomycin; 2 mM L-glutamine (Gemini Bio-Products #400-110) and 0.2 mg/mL hygromycin B (GoldBio #31282-04-9). The cells are cultured at 37° C., 5% CO2 and 95% humidity. cAMP is measured with HTRF dynamic cAMP assay (Cisbio, #62AM5PEJ) per manufacturer's instructions. On the day of the assay, the media is aspirated and the cells are treated with 50 μL of stimulation buffer supplemented with 10.2 mM 3-Isobutyl-1-methylxanthine (IBMX, Millipore Sigma #15879) and 1.6 μM NKH477 (Tocris #1603), plus various dilutions of SMDCs of the present invention. The cells are incubated for 20 minutes at 37° C. (the final concentration of the compounds of the invention are typically 0-10,000 nM). The cells are treated with 50 μL of lysis buffer (HRTF cAMP kit, Cisbio) and incubated at room temperature for 30 minutes with rotary shaking at 600 rpm, and then diluted with 150 μL of stimulation buffer and shaken for an additional five minutes at 300 rpm. The lysate is transferred to 384-well plates and incubated for 1-24 hours at room temperature, and cAMP accumulation is detected by d2-labeled cAMP and Anti-cAMP-Cryptate. The time-resolved fluorescent signal is read using a m1000 Pro (Tecan) or CLARIOStar (BMG Labtech) microplate reader, where the samples are excited with light at 340 nm and emission light is measured at 620 nm and 665 nm. The data is expressed as a calculation of the fluorescence ratio (665 nm/620 nm). The intracellular cAMP concentrations are calculated by regression to a standard curve and are plotted vs. the concentration of the compounds of the invention. The EC50 of the compounds are calculated using standard methods. All data manipulations are in GraphPad Prism v9 (GraphPad, San Diego, CA).

SST2 = target: T2, SST2 (Homo sapiens, UniProt P30874); test: PathHunter CHO-K1 SST2 internalization assay; settings: PathHunter CHO-K1 SST2, 90 min
T2 construct: host or cells: PathHunter CHO-K1 SST2 cells
Procedure: SMDCs of the present invention were assessed in vitro using the human PathHunter CHO-K1 SST2 β-arrestin2 and PathHunter CHO-K1 SST2 Internalization Assays from DiscoverX. The CHO-K cells were seeded in 20 μLs of cell culture medium in a white-walled 384 well tissue culture-compatible plate at a density of 2500 cells/well. After a 48-hour incubation, cells were treated with 5 μLs of a 1:3 serially diluted SST2 SMDC prepared at 5× concentration with a final top compound concentration of 10 uM for 90 min at 37 C and in 5% CO2. 11 dilutions were tested as well as one treatment that was compound free. After incubation, the media containing treatments were discarded and 20 μL of a working solution of Beta-Glo from Promega Beta-Glo Assay System was added to each well. The plate was then incubated for 60 min at room temperature in the dark. Luminescence was measured using a Tecan plate reader. IC50 curves were generated using the nonlinear regression analysis (four-parameters) with GraphPad Prism 9. Results were the average of duplicates and are corrected for background.

[2] = test system: NCI-H524 (ATCC) human small cell lung cancer cells
Procedure: SMDCs of the present invention were assessed in an in vitro assay evaluating the inhibition of cell proliferation. NCI-H524 (ATCC) human small cell lung cancer cells were plated in 96-well V-bottom plates (Costar) at a concentration of 5,000 cells/well. 24 h later, the cells were treated for 2 h with a SMDC. SMDC starting dose was 1 uM and two-fold serial dilutions were done for a total of 11 points. After 2 h of treatment, cells were spun down, and the drug-containing media was removed, and fresh complete media was added and used to resuspend the cells, which were spun again. After removal of the media, the cells were resuspended in complete medium and incubated for an additional 70 h. Cell proliferation was assessed using the CellTiter Glo Assay according to the standard protocol (Promega). Luminescence was measured using a TECAN plate reader. Percent proliferation inhibition was calculated using the following formula: % inhibition=(Luminescence Control−Luminescence Treatment)/Luminescence Control*100. IC50 curves were generated using the nonlinear regression analysis (four-parameter) with GraphPad Prism 9.

[3] = 2 h treatment, washout, additional 70 h, read-out: H524 EC50

T1 sequence (P30874 whole entry): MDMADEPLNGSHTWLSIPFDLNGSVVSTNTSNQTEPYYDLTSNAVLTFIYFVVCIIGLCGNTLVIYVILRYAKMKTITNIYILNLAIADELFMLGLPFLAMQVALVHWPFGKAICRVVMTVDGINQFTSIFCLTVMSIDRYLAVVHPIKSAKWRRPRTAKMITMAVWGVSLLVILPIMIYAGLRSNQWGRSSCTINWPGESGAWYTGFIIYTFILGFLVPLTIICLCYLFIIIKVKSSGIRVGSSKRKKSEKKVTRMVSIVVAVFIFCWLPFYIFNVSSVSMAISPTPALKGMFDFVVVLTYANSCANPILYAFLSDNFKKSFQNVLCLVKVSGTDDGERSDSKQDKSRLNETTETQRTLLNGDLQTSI
T2 sequence (P30874 whole entry): as above

| Compound | EC50 ([1]; read-out: hSST2 cAMP Avg EC50) [nM] | EC50 (SST2; read-out: Internalization EC50) [nM] | EC50 ([2]; 2 h) [nM] | EC50 ([1]; hSST2 cAMP Avg EC50 (nM)) [nM] | EC50 (SST2; Internalization EC50 (nM)) [nM] | EC50 [2, 3] [nM] |
| --- | --- | --- | --- | --- | --- | --- |
| CC[C@H](C)[C@@H]([C@@H](CC(=O)N1CCC[C@H]1[C@H](OC)[C@@H](C)C(=O)N[C@H](C)[C@@H](O)c1ccccc1)OC)N(C)C(=O)[C@@H](NC(=O)[C@H](C(C)C)N(C)C(=O)OCc1ccc(NC(=O)[C@H](CCCNC(N)=O)NC(=O)[C@@H](NC(=O)CCC(=O)NCCNc2ncc(-c3cc(C)cc(F)c3)c(N3CCC(N)CC3)c2-c2nc3ccc(Cl)cc3[nH]2)C(C)C)c(O[C@@H]2O[C@H](C(=O)O)[C@@H](O)[C@H](O)[C@H]2O)c1)C(C)C [Compound 75] | 0.54 | 8.9 | 16.5 | – | – | – |
| CC[C@@]1(O)C(=O)OCc2c1cc1n(c2=O)Cc2c-1nc1cc(F)c(C)c3c1c2[C@@H](NC(=O)OCc1ccc(NC(=O)[C@H](CCCNC(N)=O)NC(=O)[C@@H](NC(=O)CCOCCC(=O)NCCNc2ncc(-c4cc(C)cc(F)c4)c(N4CCC(N)CC4)c2-c2nc4ccc(Cl)cc4[nH]2)C(C)C)cc1)CC3 [Compound 88] | – | – | – | 0.3 | 1.3 | 55 |
| CC[C@H](C)[C@@H]([C@@H](CC(=O)N1CCC[C@H]1[C@H](OC)[C@@H](C)C(=O)N[C@H](C)[C@@H](O)c1ccccc1)OC)N(C)C(=O)[C@@H](NC(=O)[C@H](C(C)C)N(C)C(=O)OCc1ccc(NC(=O)[C@H](C)NC(=O)[C@@H](NC(=O)[C@H](CS(=O)(=O)O)NC(=O)CCOCCC(=O)NCCNc2ncc(-c3cc(C)cc(F)c3)c(N3CCC(N)CC3)c2-c2nc3ccc(Cl)cc3[nH]2)C(C)C)cc1C(=O)NCCN)C(C)C [Compound 117] | 0.081 | 2.6 | 3.7 | – | – | – |
| CC[C@H](C)[C@@H]([C@@H](CC(=O)N1CCC[C@H]1[C@H](OC)[C@@H](C)C(=O)N[C@H](C)[C@@H](O)c1ccccc1)OC)N(C)C(=O)[C@@H](NC(=O)[C@H](C(C)C)N(C)C(=O)OCc1ccc(NC(=O)[C@H](CCCNC(N)=O)NC(=O)[C@@H](NC(=O)[C@H](CS(=O)(=O)O)NC(=O)CCOCCOCCOCCOCCC(=O)NCCNc2ncc(-c3cc(C)cc(F)c3)c(N3CCC(N)CC3)c2-c2nc3ccc(Cl)cc3[nH]2)C(C)C)cc1C(=O)NCCN)C(C)C [Compound 100] | 0.14 | 3.3 | 6.4 | – | – | – |
| CC[C@H](C)[C@@H]([C@@H](CC(=O)N1CCC[C@H]1[C@H](OC)[C@@H](C)C(=O)N[C@H](C)[C@@H](O)c1ccccc1)OC)N(C)C(=O)[C@@H](NC(=O)[C@H](C(C)C)N(C)C(=O)OCc1ccc(NC(=O)[C@H](CCCNC(N)=O)NC(=O)[C@@H](NC(=O)CCOCCC(=O)NCCNc2ncc(-c3cc(C)cc(F)c3)c(N3CCC(N)CC3)c2-c2nc3ccc(Cl)cc3[nH]2)C(C)C)c(O[C@@H]2O[C@H](C(=O)O)[C@@H](O)[C@H](O)[C@H]2O)c1)C(C)C [Compound 132] | 0.2 | 5.7 | 22 | – | – | – |
| CC[C@H](C)[C@@H]([C@@H](CC(=O)N1CCC[C@H]1[C@H](OC)[C@@H](C)C(=O)N[C@H](C)[C@@H](O)c1ccccc1)OC)N(C)C(=O)[C@@H](NC(=O)[C@H](C(C)C)N(C)C(=O)OCc1ccc(NC(=O)[C@H](C)NC(=O)[C@@H](NC(=O)[C@H](CCC(=O)O)NC(=O)CCOCCOCCOCCOCCC(=O)NCCNc2ncc(-c3cc(C)cc(F)c3)c(N3CCC(N)CC3)c2-c2nc3ccc(Cl)cc3[nH]2)C(C)C)c(O[C@@H]2O[C@H](C(=O)O)[C@@H](O)[C@H](O)[C@H]2O)c1)C(C)C [Compound 152] | 0.2 | 5.8 | 91 | – | – | – |
| CC[C@H](C)[C@@H]([C@@H](CC(=O)N1CCC[C@H]1[C@H](OC)[C@@H](C)C(=O)N[C@H](C)[C@@H](O)c1ccccc1)OC)N(C)C(=O)[C@@H](NC(=O)[C@H](C(C)C)N(C)C(=O)CNC(=O)[C@H](Cc1ccccc1)NC(=O)CNC(=O)CNC(=O)CCOCCC(=O)NCCNc1ncc(-c2cc(C)cc(F)c2)c(N2CCC(N)CC2)c1-c1nc2ccc(Cl)cc2[nH]1)C(C)C [Compound 34] (X1-GGFG[NMeV]V[Dil][Dolaproine]-X2) | – | – | – | 0.16 | 21.8 | 3140 |
| CC[C@H](C)[C@@H]([C@@H](CC(=O)N1CCC[C@H]1[C@H](OC)[C@@H](C)C(=O)N[C@H](C)[C@@H](O)c1ccccc1)OC)N(C)C(=O)[C@@H](NC(=O)[C@H](C(C)C)N(C)C(=O)OCc1ccc2cc1C(=O)NCCNC(=O)CC[C@H](NC(=O)CCOCCC(=O)NCCNc1ncc(-c3cc(C)cc(F)c3)c(N3CCC(N)CC3)c1-c1nc3ccc(Cl)cc3[nH]1)C(=O)N[C@@H](C(C)C)C(=O)N[C@@H](CCCNC(N)=O)C(=O)N2)C(C)C [Compound 59] | 0.35 | 6.5 | 14 | – | – | – |
| CCC(C)C(C(CC(=O)N1CCCC1C(OC)C(C)C(=O)NC(C)C(O)c1ccccc1)OC)N(C)C(=O)C(NC(=O)C(C(C)C)N(C)C(=O)OCc1ccc(NC(=O)[C@H](CCCNC(N)=O)NC(=O)[C@@H](NC(=O)CNC(=O)[C@H](Cc2ccccc2)NC(=O)CNC(=O)CNC(=O)CCOCCC(=O)NCCNc2ncc(-c3cc(C)cc(F)c3)c(N3CCC(N)CC3)c2-c2nc3ccc(Cl)cc3[nH]2)C(C)C)cc1)C(C)C (stereo in doubt) [Compound 30] | 0.56 | 7.1 | 28.6 | – | – | – |
| CC[C@H](C)[C@@H]([C@@H](CC(=O)N1CCC[C@H]1[C@H](OC)[C@@H](C)C(=O)N[C@H](C)[C@@H](O)c1ccccc1)OC)N(C)C(=O)[C@@H](NC(=O)[C@H](C(C)C)N(C)C(=O)OCc1ccc(NC(=O)[C@H](CCCNC(N)=O)NC(=O)[C@@H](NC(=O)CCOCCOCCOCCOCCC(=O)NCCNc2ncc(-c3cc(C)cc(F)c3)c(N3CCC(N)CC3)c2-c2nc3ccc(Cl)cc3[nH]2)C(C)C)cc1C(N)=O)C(C)C [Compound 123] | 0.13 | 7 | 18 | – | – | – |
| CC[C@H](C)[C@@H]([C@@H](CC(=O)N1CCC[C@H]1[C@H](OC)[C@@H](C)C(=O)N[C@H](C)[C@@H](O)c1ccccc1)OC)N(C)C(=O)[C@@H](NC(=O)[C@H](C(C)C)N(C)C(=O)OCc1ccc(NC(=O)[C@H](C)NC(=O)[C@@H](NC(=O)CCOCCOCCOCCOCCC(=O)NCCNc2ncc(-c3cc(C)cc(F)c3)c(N3CCC(N)CC3)c2-c2nc3ccc(Cl)cc3[nH]2)C(C)C)cc1C(=O)NCCN)C(C)C [Compound 85] | 0.25 | 13 | 2.2 | – | – | – |
